Results: patent US9770438B2, “Clonidine formulation in a polyorthoester carrier” (Medtronic, Inc., priority 2008, dated 2017)

Legend:
[1] = system: Rat Chronic Constriction Injury Model (Bennett Model) of neuropathic pain; settings: subcutaneously 0.02 mg/kg/day; compared to unloaded polyorthoester depot (POE Control); days 7-63; FIG. 3
From the text: (§1) A 2-month chronic constriction injury (CCI) model of neuropathic pain was used to evaluate a formulation of clonidine encapsulated in a POE polymer, a POE control polymer and clonidine given subcutaneously (SC).
(§2) The inventors evaluated the efficacy of a five month Clonidine/Polyorthoester Drug Depot in the Rat Chronic Constriction Injury Model. The animal model was the Bennett Model (Wistar rat). The purpose: to determine whether a five month polyorthoester clonidine-eluting depot can improve pain associated behavioral responses in a rat model of neuropathic pain.
(§3) Experimental Design: Four loose chromic gut ligatures, 1 mm apart, were tied around the common sciatic nerve at mid-thigh. Each animal received treatment of test or a controlled article according to the dosing described in Table 2.
(§4) The inventors have conducted the present study for a period of 64 days and have employed the following two tests: (1) the Hargreaves test; and (2) the von Frey test. The Hargreaves Tests of Thermal Hyperalgesia were conducted on days 7, 14, 21, 28, 35, 42, 49, 56 and 63. The von Frey monofilament test of mechanical allodynia (performed the day following thermal testing) were conducted on days 8, 15, 22, 29, 36, 43, 50, 57 and 64.

[2] = system: Rat Chronic Constriction Injury Model (Bennett Model) of neuropathic pain; settings: subcutaneously 0.02 mg/kg/day; compared to unloaded polyorthoester depot (POE Control); days 8-64; FIG. 4
From the text: as §1, §2, §3, §4

Clc1cccc(Cl)c1N=C1NCCN1 [clonidine, 2,6-dichloro-N-2-imidazolidinyldenebenzenamine]
pain behavioral response (percentage of baseline) for thermal hyperalgesia [1]: consistently reduced the behavioral response | pain behavioral response (percentage of baseline) for mechanical allodynia [2]: reduced the behavioral response
